Assay results from patent US20100298141A1, “SUBSTITUTED PYRIDINE N-OXIDE HERBICIDES” (E. I. DU PONT DE NEMOURS AND COMPANY, priority 2007, published 2010).

Experiments:
Goosegrass = test: Test C pre-/postemergence test; type: in vivo, Eleusin indica; conditions: Preemergence
Procedure, shortened: (§1)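 Test chemicals were formulated with surfactant in a non-phytotoxic solvent and sprayed both on freshly planted seeds (preemergence) and on 1- to 4-leaf plants of 2–18 cm (postemergence). Flooded-paddy pots received compound directly into 3 cm of standing water, maintained for the test.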

corn [1] = test: Test A pre-/postemergence greenhouse test; type: in vivo, Zea mays; conditions: for Corn plant response rating: 0 to 100 scale
Procedure, shortened: (§2)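 Pre: directed soil spray on seeded loam/sand. Post: foliar spray, plants 2–10 cm, 1–2 leaf stage, applied concurrently. Vehicle: non-phytotoxic solvent + surfactant. Greenhouse ~10 d; visual injury rating vs untreated controls.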

duck salad = test: Test C flooded paddy test; type: in vivo, Heteranthera limosa; conditions: Flood
Procedure, shortened: (§3)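 Flooded 3 cm over soil; compound into paddy water; depth kept constant. Greenhouse 13–15 d.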

corn [2] = test: Test C pre-/postemergence test; type: in vivo, Zea mays
Procedure, shortened: as §1

velvetleaf = test: Test A pre-/postemergence greenhouse test; type: in vivo, Abutilon theophrasti; conditions: for Velvetleaf plant response rating: 0 to 100 scale
Procedure, shortened: as §2

green foxtail = test: Test C pre-/postemergence test; type: in vivo, Setaria viridis; conditions: Preemergence
Procedure, shortened: as §1

crabgrass [3] = test: Test C pre-/postemergence test; type: in vivo, Digitaria sanguinalis; conditions: Preemergence
Procedure, shortened: as §1

barnyardgrass [4] = test: Test A pre-/postemergence greenhouse test; type: in vivo, Echinochloa crus-galli; conditions: for Barnyardgrass plant response rating: 0 to 100 scale
Procedure, shortened: as §2

yellow nutsedge = test: Test C pre-/postemergence test; type: in vivo, Cyperus esculentus; conditions: Preemergence
Procedure, shortened: as §1

pigweed = test: Test C pre-/postemergence test; type: in vivo, Amaranthus retroflexus; conditions: Preemergence
Procedure, shortened: as §1

johnsongrass = test: Test C pre-/postemergence test; type: in vivo, Sorghum halepense; conditions: Preemergence
Procedure, shortened: as §1

bermudagrass = test: Test C pre-/postemergence test; type: in vivo, Cynodon dactylon
Procedure, shortened: as §1

Italian ryegrass = test: Test C pre-/postemergence test; type: in vivo, Lolium multiflorum; conditions: Preemergence
Procedure, shortened: as §1

umbrella sedge = test: Test C flooded paddy test; type: in vivo, Cyperus difformis; conditions: Flood
Procedure, shortened: as §3

soybean = test: Test C pre-/postemergence test; type: in vivo, Glycine max; conditions: Preemergence
Procedure, shortened: as §1

crabgrass [5] = test: Test A pre-/postemergence greenhouse test; type: in vivo, Digitaria sanguinalis; conditions: for Crabgrass, Large plant response rating: 0 to 100 scale
Procedure, shortened: as §2

barnyardgrass [6] = test: Test C flooded paddy test; type: in vivo, Echinochloa crus-galli; conditions: Flood
Procedure, shortened: as §3

[7] = 31 g ai/ha, scale 0 to 100 (0 no effect, 100 complete control)
[8] = Postemergence, 125 g ai/ha, 0 is no effect, 100 is complete control
[9] = Postemergence, 500 g ai/ha, 0 is no effect, 100 is complete control
[10] = Preemergence, 125 g ai/ha, 0 no effect, 100 complete control
[11] = Preemergence, 500 g ai/ha, 0 to 100 scale where 0 is no effect and 100 is complete control
[12] = 62 g ai/ha, scale 0 to 100, 0 no effect, 100 complete control, 13 to 15 days
[13] = 125 g ai/ha, scale 0 to 100, 0 no effect, 100 complete control, 13 to 15 days
[14] = 250 g ai/ha, scale 0 to 100, 0 no effect, 100 complete control, 13 to 15 days
[15] = Preemergence, 31 g ai/ha, scale 0 to 100 (0 no effect, 100 complete control)
[16] = preemergence, 125 g ai/ha, scale 0 (no effect) to 100 (complete control)

**Q.** `Cn1nc(C(F)(F)F)c(C[S+]([O-])c2cc(C(F)(F)F)cc[n+]2[O-])c1Cl` (racemic) [Compound 34] was tested. Which “Goosegrass plant response rating” value (Goosegrass; 62 g ai/ha, scale 0 to 100) did it give?
**A.** 98

**Q.** What about the “Plant response rating, Goosegrass” value (Goosegrass; [7]) of the same compound?
**A.** 98

**Q.** What about the “Plant response rating (0 to 100), Goosegrass” value (Goosegrass; 250 g ai/ha) of the same compound?
**A.** 100

**Q.** What about the “Corn plant response rating” value (corn [1]; [8]) of the same compound?
**A.** 0

**Q.** What about the “Corn plant response rating” value (corn [1]; [9]) of the same compound?
**A.** 20

**Q.** And the “Corn plant response rating” value (corn [1]; [10])?
**A.** 0

**Q.** And the “Plant response rating, Corn” value (corn [1]; [11])?
**A.** 0

**Q.** And the “Plant response rating, Ducksalad” value (duck salad; [7])?
**A.** 0

**Q.** What about the “Plant response rating, Ducksalad” value (duck salad; [12]) of the same compound?
**A.** 75

**Q.** What about the “Plant response rating, Ducksalad” value (duck salad; [13]) of the same compound?
**A.** 80

**Q.** And the “Plant response rating, Ducksalad” value (duck salad; [14])?
**A.** 85

**Q.** What about the “Corn plant response rating” value (corn [2]; 62 g ai/ha, Preemergence, scale 0 to 100) of the same compound?
**A.** 0

**Q.** And the “Plant response rating, Corn” value (corn [2]; [15])?
**A.** 0

**Q.** And the “Plant response rating (0 to 100), Corn” value (corn [2]; Preemergence, 250 g ai/ha)?
**A.** 20

**Q.** And the “Corn plant response rating” value (corn [2]; [16])?
**A.** 5

**Q.** What about the “Velvetleaf plant response rating” value (velvetleaf; [8]) of the same compound?
**A.** 30

**Q.** And the “Velvetleaf plant response rating” value (velvetleaf; [9])?
**A.** 60

**Q.** What about the “Velvetleaf plant response rating” value (velvetleaf; [10]) of the same compound?
**A.** 30

**Q.** And the “Plant response rating, Velvetleaf” value (velvetleaf; [11])?
**A.** 60

**Q.** What about the “Foxtail, Green plant response rating” value (green foxtail; 62 g ai/ha, scale 0 to 100) of the same compound?
**A.** 50

**Q.** And the “Plant response rating, Foxtail, Green” value (green foxtail; [7])?
**A.** 10

**Q.** What about the “Plant response rating (0 to 100), Foxtail, Green” value (green foxtail; 250 g ai/ha) of the same compound?
**A.** 100

**Q.** What about the “Crabgrass, Large plant response rating” value (crabgrass [3]; 62 g ai/ha, scale 0 to 100) of the same compound?
**A.** 100

**Q.** What about the “Plant response rating, Crabgrass, Large” value (crabgrass [3]; [7]) of the same compound?
**A.** 98

**Q.** What about the “Plant response rating (0 to 100), Crabgrass, Large” value (crabgrass [3]; 250 g ai/ha) of the same compound?
**A.** 100

**Q.** What about the “Barnyardgrass plant response rating” value (barnyardgrass [4]; [8]) of the same compound?
**A.** 40

**Q.** What about the “Barnyardgrass plant response rating” value (barnyardgrass [4]; [9]) of the same compound?
**A.** 60

**Q.** And the “Barnyardgrass plant response rating” value (barnyardgrass [4]; [10])?
**A.** 80

**Q.** And the “Plant response rating, Barnyardgrass” value (barnyardgrass [4]; [11])?
**A.** 100

**Q.** And the “Nutsedge, Yellow plant response rating” value (yellow nutsedge; 62 g ai/ha, scale 0 to 100)?
**A.** 70

**Q.** What about the “Plant response rating, Nutsedge, Yellow” value (yellow nutsedge; [7]) of the same compound?
**A.** 70

**Q.** What about the “Pigweed plant response rating” value (pigweed; 62 g ai/ha, scale 0 to 100) of the same compound?
**A.** 100

**Q.** What about the “Plant response rating, Pigweed” value (pigweed; [7]) of the same compound?
**A.** 100

**Q.** What about the “Johnsongrass plant response rating” value (johnsongrass; 62 g ai/ha, scale 0 to 100) of the same compound?
**A.** 85

**Q.** What about the “Plant response rating, Johnsongrass” value (johnsongrass; [7]) of the same compound?
**A.** 85

**Q.** What about the “Plant response rating (0 to 100), Johnsongrass” value (johnsongrass; 250 g ai/ha) of the same compound?
**A.** 100

**Q.** What about the “Bermudagrass plant response rating” value (bermudagrass; 62 g ai/ha, Preemergence, scale 0 to 100 (0 no effect, 100 complete control)) of the same compound?
**A.** 100

**Q.** What about the “Plant response rating, Bermudagrass” value (bermudagrass; [15]) of the same compound?
**A.** 75

**Q.** What about the “Plant response rating (0 to 100), Bermudagrass” value (bermudagrass; Preemergence, 250 g ai/ha) of the same compound?
**A.** 100

**Q.** What about the “Bermudagrass plant response rating” value (bermudagrass; [16]) of the same compound?
**A.** 100

**Q.** And the “Ryegrass, Italian plant response rating” value (Italian ryegrass; 62 g ai/ha, scale 0 to 100)?
**A.** 0

**Q.** And the “Plant response rating, Ryegrass, Italian” value (Italian ryegrass; [7])?
**A.** 0

**Q.** What about the “Plant response rating, Sedge, Umbrella” value (umbrella sedge; [7]) of the same compound?
**A.** 0

**Q.** And the “Plant response rating, Sedge, Umbrella” value (umbrella sedge; [12])?
**A.** 85

**Q.** And the “Plant response rating, Sedge, Umbrella” value (umbrella sedge; [13])?
**A.** 85

**Q.** And the “Plant response rating, Sedge, Umbrella” value (umbrella sedge; [14])?
**A.** 90

**Q.** And the “Soybean plant response rating” value (soybean; 62 g ai/ha, scale 0 to 100)?
**A.** 0

**Q.** And the “Plant response rating, Soybean” value (soybean; [7])?
**A.** 0

**Q.** What about the “Crabgrass, Large plant response rating” value (crabgrass [5]; [8]) of the same compound?
**A.** 10

**Q.** What about the “Crabgrass, Large plant response rating” value (crabgrass [5]; [9]) of the same compound?
**A.** 70

**Q.** And the “Crabgrass, Large plant response rating” value (crabgrass [5]; [10])?
**A.** 60

**Q.** And the “Plant response rating, Crabgrass, Large” value (crabgrass [5]; [11])?
**A.** 70

**Q.** What about the “Plant response rating, Barnyardgrass” value (barnyardgrass [6]; [7]) of the same compound?
**A.** 0

**Q.** And the “Plant response rating, Barnyardgrass” value (barnyardgrass [6]; [12])?
**A.** 0

**Q.** And the “Plant response rating, Barnyardgrass” value (barnyardgrass [6]; [13])?
**A.** 0

**Q.** What about the “Plant response rating, Barnyardgrass” value (barnyardgrass [6]; [14]) of the same compound?
**A.** 30
